# Experimental data reported in ChEMBL document CHEMBL3885881, “DrugMatrix”.
# Species: Rattus norvegicus
# Assay: DrugMatrix - Regimen: Daily Repeat
# Assay type: toxicity, organism-based, Sprague-Dawley
# Design: regimen Daily Repeat, gender Male, age 6-8 weeks
# Conditions: in vivo, po, route oral GAVAGE, […]; for ABSOLUTE BASOPHIL / ABSOLUTE EOSINOPHIL / ABSOLUTE LYMPHOCYTE / ABSOLUTE MONOCYTE / ABSOLUTE SEGMENTED NEUTROPHIL / BASOPHIL / EOSINOPHIL / ERYTHROCYTE COUNT / HEMATOCRIT / HEMOGLOBIN / LEUKOCYTE COUNT / LYMPHOCYTE / MEAN CORPUSCULAR HEMOGLOBIN / MEAN CORPUSCULAR HEMOGLOBIN CONCENTRATION / MEAN CORPUSCULAR VOLUME / MONOCYTE / NEUTROPHIL / NUCLEATED RED BLOOD CELLS / PLATELET COUNT: tissue Blood; for ALANINE AMINOTRANSFERASE / ALBUMIN / ALKALINE PHOSPHATASE / ASPARTATE AMINOTRANSFERASE / BLOOD UREA NITROGEN / CARBON DIOXIDE / CHLORIDE / CHOLESTEROL / CREATINE PHOSPHOKINASE / CREATININE / GLUCOSE / LACTATE DEHYDROGENASE / LIPASE / PHOSPHORUS / POTASSIUM / SODIUM / TOTAL BILIRUBIN / TOTAL PROTEIN / URIC ACID: tissue Plasma
# [1] = 100 mg/kg, 120 h, dose level M1, time 5 day
# [2] = 610 mg/kg, 72 h, dose level High, time 3 day
# [3] = 610 mg/kg, 120 h, dose level High, time 5 day
structure (smiles),measurement,setting,value
CC(C)(c1ccc(O)cc1)c1ccc(O)cc1 [BISPHENOL A],ABSOLUTE BASOPHIL,[1],0 CELLS/uL
same,ABSOLUTE EOSINOPHIL,[1],0 CELLS/uL
same,ABSOLUTE LYMPHOCYTE,[1],6683.33 CELLS/uL
same,ABSOLUTE MONOCYTE,[1],63.33 CELLS/uL
same,ABSOLUTE SEGMENTED NEUTROPHIL,[1],353.33 CELLS/uL
same,BASOPHIL,[1],0%
same,EOSINOPHIL,[1],0%
same,ERYTHROCYTE COUNT,[1],5.4 x10E6/uL
same,HEMATOCRIT,[1],32.4%
same,HEMOGLOBIN,[1],12.83 G/DL
same,LEUKOCYTE COUNT,[1],7.1 x10E3/uL
same,LYMPHOCYTE,[1],94%
same,MEAN CORPUSCULAR HEMOGLOBIN,[1],23.8 pg
same,MEAN CORPUSCULAR HEMOGLOBIN CONCENTRATION,[1],39.63 G/DL
same,MEAN CORPUSCULAR VOLUME,[1],59.87 fL
same,MONOCYTE,[1],1%
same,NEUTROPHIL,[1],5%
same,NUCLEATED RED BLOOD CELLS,[1],0 /100WBC
same,PLATELET COUNT,[1],1281.67 x10E3/uL
same,ALANINE AMINOTRANSFERASE,[1],80.33 u/L
same,ALBUMIN,[1],4.13 G/DL
same,ALKALINE PHOSPHATASE,[1],398.67 u/L
same,ASPARTATE AMINOTRANSFERASE,[1],90.33 u/L
same,BLOOD UREA NITROGEN,[1],13.33 mg/dL
same,CARBON DIOXIDE,[1],29.33 mmol/L
same,CHLORIDE,[1],100.33 MEQ/L
same,CHOLESTEROL,[1],54.67 mg/dL
same,CREATINE PHOSPHOKINASE,[1],295 u/L
same,CREATININE,[1],0.26 mg/dL
same,GLUCOSE,[1],161 mg/dL
same,LACTATE DEHYDROGENASE,[1],102.33 u/L
same,LIPASE,[1],13.33 u/L
same,PHOSPHORUS,[1],9.57 mg/dL
same,POTASSIUM,[1],5.37 MEQ/L
same,SODIUM,[1],144.17 MEQ/L
same,TOTAL BILIRUBIN,[1],0.17 mg/dL
same,TOTAL PROTEIN,[1],5.77 G/DL
same,URIC ACID,[1],0.83 mg/dL
same,ABSOLUTE BASOPHIL,[2],0 CELLS/uL
same,ABSOLUTE EOSINOPHIL,[2],22.33 CELLS/uL
same,ABSOLUTE LYMPHOCYTE,[2],6406 CELLS/uL
same,ABSOLUTE MONOCYTE,[2],44.67 CELLS/uL
same,ABSOLUTE SEGMENTED NEUTROPHIL,[2],760.33 CELLS/uL
same,BASOPHIL,[2],0%
same,EOSINOPHIL,[2],0.33%
same,ERYTHROCYTE COUNT,[2],5.65 x10E6/uL
same,HEMATOCRIT,[2],34.33%
same,HEMOGLOBIN,[2],13.43 G/DL
same,LEUKOCYTE COUNT,[2],7.23 x10E3/uL
same,LYMPHOCYTE,[2],88.33%
same,MEAN CORPUSCULAR HEMOGLOBIN,[2],23.77 pg
same,MEAN CORPUSCULAR HEMOGLOBIN CONCENTRATION,[2],39.1 G/DL
same,MEAN CORPUSCULAR VOLUME,[2],60.8 fL
same,MONOCYTE,[2],0.67%
same,NEUTROPHIL,[2],10.67%
same,NUCLEATED RED BLOOD CELLS,[2],0.33 /100WBC
same,PLATELET COUNT,[2],1156 x10E3/uL
same,ALANINE AMINOTRANSFERASE,[2],84.33 u/L
same,ALBUMIN,[2],3.93 G/DL
same,ALKALINE PHOSPHATASE,[2],316.33 u/L
same,ASPARTATE AMINOTRANSFERASE,[2],77.67 u/L
same,BLOOD UREA NITROGEN,[2],15.67 mg/dL
same,CARBON DIOXIDE,[2],31.33 mmol/L
same,CHLORIDE,[2],100 MEQ/L
same,CHOLESTEROL,[2],64.33 mg/dL
same,CREATINE PHOSPHOKINASE,[2],263.67 u/L
same,CREATININE,[2],0.18 mg/dL
same,GLUCOSE,[2],157.33 mg/dL
same,LACTATE DEHYDROGENASE,[2],115.67 u/L
same,LIPASE,[2],10 u/L
same,PHOSPHORUS,[2],10.37 mg/dL
same,POTASSIUM,[2],5.53 MEQ/L
same,SODIUM,[2],143.73 MEQ/L
same,TOTAL BILIRUBIN,[2],0.27 mg/dL
same,TOTAL PROTEIN,[2],5.73 G/DL
same,URIC ACID,[2],0.7 mg/dL
same,ABSOLUTE BASOPHIL,[3],0 CELLS/uL
same,ABSOLUTE EOSINOPHIL,[3],0 CELLS/uL
same,ABSOLUTE LYMPHOCYTE,[3],8347 CELLS/uL
same,ABSOLUTE MONOCYTE,[3],82 CELLS/uL
same,ABSOLUTE SEGMENTED NEUTROPHIL,[3],671 CELLS/uL
same,BASOPHIL,[3],0%
same,EOSINOPHIL,[3],0%
same,ERYTHROCYTE COUNT,[3],5.73 x10E6/uL
same,HEMATOCRIT,[3],35.8%
same,HEMOGLOBIN,[3],14.07 G/DL
same,LEUKOCYTE COUNT,[3],9.1 x10E3/uL
same,LYMPHOCYTE,[3],91.67%
same,MEAN CORPUSCULAR HEMOGLOBIN,[3],24.6 pg
same,MEAN CORPUSCULAR HEMOGLOBIN CONCENTRATION,[3],39.3 G/DL
same,MEAN CORPUSCULAR VOLUME,[3],62.63 fL
same,MONOCYTE,[3],0.67%
same,NEUTROPHIL,[3],7.67%
same,NUCLEATED RED BLOOD CELLS,[3],0.33 /100WBC
same,PLATELET COUNT,[3],1180 x10E3/uL
same,ALANINE AMINOTRANSFERASE,[3],106.33 u/L
same,ALBUMIN,[3],4.3 G/DL
same,ALKALINE PHOSPHATASE,[3],452.33 u/L
same,ASPARTATE AMINOTRANSFERASE,[3],135.67 u/L
same,BLOOD UREA NITROGEN,[3],12 mg/dL
same,CARBON DIOXIDE,[3],29 mmol/L
same,CHLORIDE,[3],100.5 MEQ/L
same,CHOLESTEROL,[3],60.33 mg/dL
same,CREATINE PHOSPHOKINASE,[3],592 u/L
same,CREATININE,[3],0.11 mg/dL
same,GLUCOSE,[3],154 mg/dL
same,LACTATE DEHYDROGENASE,[3],112 u/L
same,LIPASE,[3],48.33 u/L
same,PHOSPHORUS,[3],8.77 mg/dL
same,POTASSIUM,[3],5.17 MEQ/L
same,SODIUM,[3],144.95 MEQ/L
same,TOTAL BILIRUBIN,[3],0.27 mg/dL
same,TOTAL PROTEIN,[3],5.53 G/DL
same,URIC ACID,[3],0.6 mg/dL
